Test results as given in patent US20040072750A1, “Compounds and methods for the modulation of CD154” (priority 2001, published 2004).

Legend:
Type in all cases: cell-based, human
washed platelets [1] = experiment: Cleavage of CD40L into sCD40L in platelet lysates (immunoblotting); conditions: TRAP 5 μM; activated or aggregated platelets; FIG. 4
Procedure: (§1) Collected blood was centrifuged at 160×g for 20 minutes at room temperature (Beckman GP) and the PRP layer was collected. PRP was then centrifuged at 1100×g for 10 minutes to sediment platelets. Platelets were washed twice by repeat suspending and pelleting in CGS (13 mM trisodium citrate, 120 mM NaCl, 30 mM Dextrose, pH 7.0) containing 0.05 μg/ml PGI2 for the first wash. The final suspension of platelets (5×10^8/ml) was in Tyrode's Hepes.
Cleavage of the full length CD40L (32 kD) yields the 18 kD soluble from (sCD40L). 500 μl of Washed platelets were gently mixed with TRAP (5 μM) to initiate the platelet activation. Metalloproteinase inhibitors GM6001 (50 μM, Calbiochem) or DMSO were added to washed platelets, and incubated at 37° C. with or without rocking for 30 minutes. […] Platelets were removed from suspension by centrifugation for 10 minutes at 15,000×g, 4° C. and the resulting platelet pellets were dissolved in the loading buffer. The proteins in the platelet lysates were resolved with SDS-PAGE, transferred onto nitrocellulose membrane, and blotted with anti-CD40L antibody (MK13A4, Alexis).

washed platelets [2] = experiment: sCD40L release from TRAP activated, not aggregated washed platelets (ELISA); conditions: for release of sCD40L from TRAP activated, but not aggregated, platelets: 50 μM, FIG. 3; for release of sCD154 from TRAP-stimulated platelets: 5-50 μM inhibitor, 5 μM TRAP, no rocking
Procedure: as §1, with “Washed platelets were prepared from blood drawn into ⅙^th volume of ACD containing (85 mM sodium citrate, 111 mM dextrose and 71 mM citric acid) with 0.05 μg/ml PGI2. Collected” for “Collected”
The release of sCD40L from the activated platelets was determined as follows: 500 μL of washed platelets were gently mixed 5 μM of TRAP and incubated at 37° C. without rocking for 30 min. Under this condition, platelets were activated but not aggregated. 5-50 μM of metalloproteinase inhibitors GM6001 (Galardin, Calbiochem) or TAPI-1 (Peptides International) were added to the washed platelets before the addition of TRAP. Platelets were removed from suspension by centrifugation for 10 minutes at 15,000×g, 4° C. and the resulting supernatants were collected. The levels of sCD154 were measured by ELISA.

washed platelets [3] = experiment: sCD154 release from TRAP6-stimulated washed platelets with rocking (ELISA); conditions: rocking 30 minutes, 37° C.
Procedure: (§2) Washed platelets were prepared from blood drawn into ⅙ th volume of ACD containing (85 mM sodium citrate, 111 mM dextrose and 71 mM citric acid) with 0.05 μg/ml PGI2. Collected blood was centrifuged at 160×g for 20 minutes at room temperature (Beckman GP) and the PRP layer was collected. PRP was then centrifuged at 1100×g for 10 minutes to sediment platelets. Platelets were washed twice by resuspending in CGS (13 mM trisodium citrate, 120 mM NaCl, 30 mM Dextrose, pH 7.0) containing 0.05 μg/ml PGI2 for the first wash. The final suspension of platelets (3×10^8/ml) was in Tyrode's Hepes.
b. CD154 determinations were made as follows: Washed platelets were incubated at 37° C. with various concentrations of TIMP-2 and TAPI-1 (see above) while rocking on a Nutator for 30 minutes. Platelets or platelet aggregates were removed from suspension by centrifugation for 10 minutes at 15,000×g, 4° C. and the resulting supernatants were collected. The levels of sCD154 were measured by ELISA.

washed platelets [4] = experiment: TRAP6-induced aggregation of washed platelets (aggregometer); conditions: 1 μM TRAP6; 0.1-1.0 μg/ml TIMP-2 or 5-50 μM TAPI-1
Procedure: as §2
a. For platelet aggregation studies, 500 μL of washed platelets were allowed to stir in a Chrono-Log Aggregometer before the addition of 1 μM TRAP6 to initiate aggregation. Subsequent samples included various metalloproteinase inhibitors added to washed platelets before the addition of TRAP6; 0.1-1.0 μg/ml TIMP-2 (Calbiochem) or 5-50 μM TAPI-1 (Peptides International). Aggregation proceeded for 5 minutes and the amplitude of each aggregometer tracing was calculated by Aggro-Link software.

CNC(=O)[C@H](Cc1c[nH]c2ccccc12)NC(=O)[C@@H](CC(=O)NO)CC(C)C [GM6001, N-[(2R)-2-(Hydroxamidocarbonylmethyl)-4-methylpentanoyl]-L-tryptophan methylamide]
inhibited: cleavage of the full length CD40L to the 18 kD soluble form (washed platelets [1]) | release of sCD40L from TRAP activated, but not aggregated, platelets (washed platelets [2]) | release of sCD154 from TRAP-stimulated platelets (washed platelets [2])

CC(C)C[C@H](CC(=O)NO)C(=O)N[C@@H](Cc1ccc2ccccc2c1)C(=O)N[C@@H](C)C(=O)NCCN [TAPI-1, HONHCOCH2CH(CH2CH(CH3)2-CO-NaI-Ala-NHCH2CH2NH2]
inhibited: release of sCD154 from TRAP6-stimulated platelets (washed platelets [3]) | platelet aggregation induced by sub-optimal concentrations of TRAP6 (washed platelets [4]) | release of sCD40L from TRAP activated, but not aggregated, platelets (washed platelets [2]) | release of sCD154 from TRAP-stimulated platelets (washed platelets [2])
